What all share (assay type): in vivo, human
In data set [1] the test system is subjects with uncontrolled hypertension. In words: Seated automated office blood pressure (AOBP), randomized placebo-controlled dose-ranging study. Conditions: for Automated office DBP, mean CFB at Week 8: Part 1. As to the method:
A randomized, double-blinded, placebo-controlled, dose-ranging, multicenter study was conducted to evaluate the effect of orally administered Compound A HBr on blood pressure for the treatment of hypertension in male and female subjects ≥18 years of age.
The study consists of two parts. For enrollment into Part 1 of the study, a subject's value of plasma renin activity (PRA) must be ≤1 ng/mL/h based on morning measurement. If the value of PRA >1 ng/mL/h based on morning measurement, then subjects may be eligible to enter Part 2 of the study.
For Part 1, 163 enrolled subjects ≥18 years of age were randomized into 6 equal treatment groups (1:1:1:1:1:1) to 12.5 mg BID, 25 mg BID, 12.5 mg QD, 50 mg QD, 100 mg QD, or placebo. After a review of interim clinical data, the 2 lowest dose levels (12.5 mg QD and 12.5 mg BID) were stopped for future randomization due to a lack of consistent meaningful reduction of blood pressure, but the patients randomized to that point remained in the study through completion. Thus, after the review of interim clinical data, subjects were randomized into 4 equal treatment groups (1:1:1:1) to 25 mg BID, 50 mg QD, 100 mg QD, or placebo.
For Part 2, 36 enrolled subjects ≥18 years of age were randomized (5:1) to either 100 mg QD Compound A HBr or placebo such that the Compound A HBr treatment group consisted of approximately 30 subjects and the placebo treatment group will consist of approximately 6 subjects.
Subjects orally administered the assigned study drug (Compound A HBr or placebo) according to the assigned dosing regimen for 8 weeks beginning on Study Day 1. All subjects in Part 1 (regardless of dosing group) received BID dosing to preserve the integrity of the blind; active drug is administered as the morning dose for all QD dose groups. Subjects returned to the research facility or were seen by the clinical investigator or approved home health care professional at the end of Study Weeks 1, 2, 3, 4, 5, 6, 7, and 8 (±2 days) for protocol-defined efficacy and safety assessments and procedures, assessment of adverse events (AEs), and confirmation of compliance with study drug usage. Subjects also completed a telephone visit and blood pressure (BP) check at home approximately 3 days post last dose of study drug. Subjects attended up to 14 full clinic visits, including a pre-Screening visit, a Screening/start of Placebo Run-in visit, a second visit during Placebo Run-in, a clinic visit to initiate the ABPM procedure, a Randomization visit, 8 weekly visits during double-blind treatment, and an end-of-study visit scheduled 4 weeks after the last study treatment for final efficacy and safety assessments.
An automated oscillometric sphygmomanometer device was used to measure the subjects' systolic and diastolic blood pressure in office after approximately 5 minutes of rest in the seated position.
The primary endpoint is the change in office-measured (mean of last 2 of 5 unattended measurements using an automated oscillometric sphygmomanometer device after approximately 5 minutes of rest in the seated position) systolic blood pressure (SBP) from baseline to the end of Study Week 8.
Secondary endpoints of this study were: • (a) Change in 24-hour ambulatory blood pressure monitoring (ABPM) parameters (systolic and diastolic) from baseline to the end of Study Week 7. • (b) Change in office-measured SBP from baseline to the end of Study Weeks 1, 2, 3, 4, 5, 6, and 7. • (c) Change in office-measured diastolic blood pressure (DBP) from baseline to the end of Study Weeks 1, 2, 3, 4, 5, 6, 7, and 8. • (d) Proportion of subjects who achieve office-measured BP of ≤130/80 mm Hg by the end of Study Week 8.
For AOBP measurements and any other clinical or laboratory variable for which there are replicate evaluations at the screening and baseline visits, baseline is defined as the mean of the last two non-missing values prior to first administration of the IMP for the double-blinded treatment period.

The subject of a further data set is 11-deoxycortisol. Put plainly: Pharmacodynamics: plasma 11-deoxycortisol. The note with it: for 11-Deoxycortisol, mean observed: BL. The text has this:
PK/PD Analysis Set includes all subjects in the SAF who have sufficient data available for the analysis of pharmacokinetic and pharmacodynamic measurements. In the analyses based on PKPD, subjects will be analyzed according to the actual treatment received.

The nature of another data set: ACTH stimulation testing. The note with it: majority of Part 2 subjects, 100 mg QD, Baseline and after 8 weeks. The procedure: 11-deoxycorticosterone levels were unaffected. […] Due to supply chain disruption, the ability to perform ACTH stimulation testing was limited during the first part of the trial. However, the majority of subjects in Part 2 dosed with 100 mg QD, the maximum dose tested, had ACTH-stimulation testing performed at Baseline and after 8 weeks of treatment.

The nature of data set [2]: Clinical laboratory evaluations, vital signs, physical examination, ECG.
From the text: Safety endpoints of this study are: • (a) Incidence and severity of all spontaneously reported adverse events (AEs) • (b) Changes in vital signs (standing SBP, standing DBP, body temperature, heart rate, and respiratory rate) • (c) Changes in electrocardiogram parameters (including cardiac intervals: PR, QRS, QT, and corrected QT interval using Fridericia's formula) • (d) Changes in clinical laboratory assessments (hematology, chemistry, coagulation, and urinalysis) • (e) Change in office-measured SBP from Study Week 8 (end-of-treatment period to end of follow up (i.e. end of Study Week 12 for Part 1 and end of Study 10 for Part 2).

In the case of `CC(=O)N[C@H]1CC[C@H](NC(=O)CN2CCN(c3nncc(-c4ccc(C)cc4)n3)CC2)CC1` [Compound A HBr], the “Placebo-corrected mean change in AOBP systolic BP, Full-analysis set” value in data set [1] (100 mg, Part-1 and Part-2 (interim) combined, N=58 active) was −9.9 mmHg. In addition, the “Automated office DBP, mean CFB at Week 8” value in data set [1] (12.5 mg BID, BMI <25 kg/m^2) is on record as 6.00 mmHg; in data set [1] (50 mg QD, Seated SBP Tertile Low), −2.42 mmHg; in data set [1] (100 mg QD, BMI 25-30 kg/m^2) it was −6.50 mmHg; in data set [1] (100 mg QD, Seated SBP Tertile Middle), −6.17 mmHg; in data set [1] (100 mg QD, thiazide diuretic use at baseline No) it was −4.00 mmHg. The “Blood pressure reduction in individuals receiving a thiazide diuretic as background medication” value in data set [1] (observed across dosing cohorts) was “particularly effective”. The “Blood pressure reduction in individuals with BMI greater than 30” value in data set [1] (observed across dosing cohorts) is on record as “particularly effective”. Further, the “Subjects with change in BPsys >−15 mmHg” value in data set [1] (pooled 50 mg QD, 100 mg QD, 12.5 mg BID, 25 mg BID cohorts (N=103), week 8) is reported as 41%. The “11-Deoxycortisol, mean observed” value in the data set with 11-deoxycortisol (Part 1, 12.5 mg BID) is 28.36 ng/dL; in the data set with 11-deoxycortisol (Part 1, 12.5 mg QD), 29.07 ng/dL; with 11-deoxycortisol (Part 1, 25 mg BID), 25.87 ng/dL; with 11-deoxycortisol (Part 1, 50 mg QD), 31.14 ng/dL; with 11-deoxycortisol (Part 1, 100 mg QD) it was 29.97 ng/dL; in the data set on 11-deoxycortisol (Part 2, 100 mg QD) it was 40.79 ng/dL. In addition, the 11-deoxycortisol result in the data set on 11-deoxycortisol (Part 1 active treatment arms, Week 4 compared with placebo) is “Transient increases”. In addition, the ACTH-stimulation results in the data set “ACTH stimulation testing” is “no individuals with abnormal ACTH-stimulation results”. In addition, the “Clinical chemistry, hematology, coagulation, urinalysis changes from baseline to Week 8” value in data set [2] (Part 1 or Part 2) was “no meaningful changes”. Further, in data set [2] (Parts 1 and 2), the “Vital signs, physical examination, ECG parameters” value is reported as “no notable findings”. The Serum creatinine levels result in data set [2] (active treatment cohorts compared with placebo, Parts 1 and 2) is recorded as “increased”.
